Data on 28 compounds can be found in patent publication US12617756B2 (ABIVAX, priority 2019, dated 2026).

SMILES strings stand for the structures.

The experiment relates to RSV A2. The experiment can be described thus: Screening for RSV inhibition using Viral ToxGlo assay (cytopathic effect inhibition in HEp-2 cells). The class given is cell-based, Respiratory Syncytial Virus (RSV). Particulars: human respiratory syncytial virus; RSV A2 in HEp-2 cells, MOI 0.5, 72h p.i., cytopathic effect inhibition relative to virus control, Viral ToxGlo luminescence. The method, then:
Protocol for Screening Antiviral Compounds for RSV Inhibition and Cytotoxicity Using Viral ToxGlo Assay
HEp-2 cells were maintained in Eagle's minimum essential medium (EMEM) with Earle's BSS adjusted to contain 2 mM L-glutamine, 10% fetal bovine serum, 100 U/ml penicillin and 100 µg/ml streptomycin. For the purposes of the screening assay they were grown to 90% confluency, trypsinized and recovered. The trypsin was neutralised with cell culture media and cells were centrifuged at 150×g for 5 minutes before discarding the supernatant and resuspending cell pellet in assay media (EMEM with Earle's BSS adjusted to contain 2 mM L-glutamine, 2% fetal bovine serum and 100 U/ml penicillin and 100 µg/ml streptomycin). The cells were seeded into white clear-bottomed cell culture plates at a density of 1.5×10^4 cells/well in 50 μl and 4×10^3 cells/well in 25 μl for 96 well plates and 384 well plates respectively. For the media/background control column assay media only was added. Cell plates were placed in a humid chamber and incubated overnight at 37° C./5% CO2. After overnight incubation cells were checked for confluency and healthy appearance.
Test articles were made up at 10× test concentration in a maximum DMSO concentration of 10% (final assay concentration maximal 1% DMSO) and added to the cell plates in volumes of […] for 96 well plates and 5 μl for 384 well plates. For cell control and virus control wells the test article solvent only was added. Virus or assay media for cytotoxicity test wells and media/cell control wells was added immediately after test articles at an MOI of […] for 96 and 384 well plates respectively. Virus suspension was prepared by thawing RSV A2 frozen stocks and diluting to the required concentration of plaque forming units in assay media on ice.
Cell plates were further incubated inside a humid chamber for 72h p.i at 37° C./5% CO2. After the incubation period cells were observed under the microscope to check for characteristic cytopathic effect in virus control wells and healthy cells in the cell control wells. After plates were adjusted to room temperature 20/40 μl Viral ToxGlo (Promega) was added to each well of the 384/96 well cell plates. Plates were incubated at room temperature, protected from light on a plate rocker for 20 minutes before measuring the luminescence on a spectrophotometer (Biotek Synergy HTX).
In general terms: Protection from cytopathic effect is a common read-out in antiviral testing.
In general, EC50 refers to the concentration at which the effect is half-maximal. On to `CC(C)C(=O)Nc1cccc(Nc2ccc(C(=O)N=C3NCCN3)cc2C(C)(C)C)c1` [Compound 37, 3-tert-butyl-N-[(2E)-imidazolidin-2-ylidene]-4-{[3-(2-methylpropanamido)phenyl]amino}benzamide], for which the EC50 came out at 55.5 nM.
Under `CC(C)N(C)C(=O)c1cccc(Nc2ccc(C(=O)N=C3NCCN3)cc2C(C)(C)C)c1` [Compound 38, 3-tert-butyl-N-[(2E)-imidazolidin-2-ylidene]-4-({3-[methyl(propan-2-yl)carbamoyl]phenyl}amino)benzamide] stands 63.7 nM; under `CC(C)(C)c1cc(C(=O)N=C2NCCN2)ccc1Nc1cccc(C(=O)NCCC2CCOCC2)c1` [Compound 39, 3-tert-butyl-N-[(2E)-imidazolidin-2-ylidene]-4-[(3-{[2-(oxan-4-yl)ethyl]carbamoyl}phenyl)amino]benzamide], 66.2 nM; under `Cc1c(C(=O)NCCC(C)C)ccnc1Nc1ccc(C(=O)N=C2NCCN2)cc1C1CC1` [Compound 40, 2-[(2-cyclopropyl-4-{[(2E)-imidazolidin-2-ylidene]carbamoyl}phenyl)amino]-3-methyl-N-(3-methylbutyl)pyridine-4-carboxamide], 69.2 nM.
Under `O=C1CN/C(=N\C(=O)c2ccc(Nc3cccc(OCCCC4CCCCC4)c3)c(C3CC3)c2)N1` [Compound 41, 4-{[3-(3-cyclohexylpropoxy)phenyl]amino}-3-cyclopropyl-N-[(2E)-4-oxoimidazolidin-2-ylidene]benzamide] stands 77.2 nM; under `O=C(N=C1NCCN1)c1ccc(Nc2cccc(C(=O)N3CCOCC3)c2C2CC2)c(C(F)(F)F)c1` [Compound 42, 4-{[2-cyclopropyl-3-(morpholine-4-carbonyl)phenyl]amino}-N-[(2Z)-imidazolidin-2-ylidene]-3-(trifluoromethyl)benzamide], 78.4 nM.
Then `CC(C)NC(=O)c1cccc(Nc2ccc(C(=O)/N=C3\NCCN3C3CC3)cc2C2CC2)c1` [Compound 43, 3-cyclopropyl-N-[(2E)-1-cyclopropylimidazolidin-2-ylidene]-4-({3-[(propan-2-yl)carbamoyl]phenyl}amino)benzamide], with 79.8 nM.
On to `CC(C)CCNC(=O)c1cccc(Nc2ccc(C(=O)N=C3NCCN3)cc2C(C)(C)O)c1` [Compound 44, 3-(2-hydroxypropan-2-yl)-N-[(2E)-imidazolidin-2-ylidene]-4-({3-[(3-methylbutyl)carbamoyl]phenyl}amino)benzamide], for which the EC50 was determined as 90.4 nM.
Under `CC(C)(O)c1cc(C(=O)N=C2NCCN2)ccc1Nc1cccc(C(=O)N2CCOCC2)c1Cl` [Compound 45, 4-{[2-chloro-3-(morpholine-4-carbonyl)phenyl]amino}-3-(2-hydroxypropan-2-yl)-N-(imidazolidin-2-ylidene)benzamide] stands 91.5 nM; under `CC(=O)N1CCN/C1=N\C(=O)c1ccc(Nc2cccc(OCCCC3CCCCC3)c2)c(C2CC2)c1` [Compound 46, N-[(2E)-1-acetylimidazolidin-2-ylidene]-4-{[3-(3-cyclohexylpropoxy)phenyl]amino}-3-cyclopropylbenzamide], 104 nM.
Then `CC1(NC(=O)c2cc(F)cc(Nc3ccc(C(=O)N=C4NCCN4)cc3C3CC3)c2)CC1` [Compound 47, 3-cyclopropyl-4-({3-fluoro-5-[(1-methylcyclopropyl)carbamoyl]phenyl}amino)-N-[(2Z)-imidazolidin-2-ylidene]benzamide], with 113 nM; and `CC(C)(C)c1cc(C(=O)N=C2NCCN2)ccc1Nc1cccc(C(=O)NCCC2CCOC2)c1` (stereo not shown) [Compound 48, 3-tert-butyl-N-[(2E)-imidazolidin-2-ylidene]-4-[(3-{[2-(oxolan-3-yl)ethyl]carbamoyl}phenyl)amino]benzamide], with 117 nM.
Regarding `CC(C)NC(=O)c1cccc(Nc2ccc(C(=O)/N=C3\NCC(=O)N3)cc2C(C)(C)C)c1` [Compound 49, 3-tert-butyl-N-[(2E)-4-oxoimidazolidin-2-ylidene]-4-({3-[(propan-2-yl)carbamoyl]phenyl}amino)benzamide], the half-maximal effective concentration (EC50) stood at 118 nM.
Then `O=C(N=C1NCCN1)c1ccc(Nc2cccc(C(=O)NC3CCOCC3)c2Cl)c(C2CC2)c1` [Compound 50, 4-({2-chloro-3-[(oxan-4-yl)carbamoyl]phenyl}amino)-3-cyclopropyl-N-[(2E)-imidazolidin-2-ylidene]benzamide], with 136 nM; and `O=C(N=C1NCCN1)c1ccc(Nc2cccc(OCC3COCCO3)c2)c(C2CCCC2)c1` (stereo not shown) [Compound 51, 3-cyclopentyl-4-({3-[(1,4-dioxan-2-yl)methoxy]phenyl}amino)-N-[(2E)-imidazolidin-2-ylidene]benzamide], with 140 nM; and `CC(C)(C)c1cc(C(=O)N=C2NCCN2)ccc1Nc1cccc(OCC2COCCO2)c1` (stereo not shown) [Compound 52, 3-tert-butyl-4-({3-[(1,4-dioxan-2-yl)methoxy]phenyl}amino)-N-[(2E)-imidazolidin-2-ylidene]benzamide], with 142 nM.
Then `O=C(N=C1NCCN1)c1ccc(Nc2cccc(C(=O)NC3(C(F)(F)F)CC3)c2)c(C2CC2)c1` [Compound 53, 3-cyclopropyl-N-[(2Z)-imidazolidin-2-ylidene]-4-[(3-{[1-(trifluoromethyl)cyclopropyl]carbamoyl}phenyl)amino]benzamide], with 153 nM.
Then `CC(C)NC(=O)c1ccccc1Nc1ccc(C(=O)N=C2NCCN2)cc1C(C)(C)C` [Compound 54, 3-tert-butyl-N-[(2E)-imidazolidin-2-ylidene]-4-({2-[(propan-2-yl)carbamoyl]phenyl}amino)benzamide], with 166 nM.
Consider `CC(C)CCNC(=O)c1ccnc(Nc2ccc(C(=O)N=C3NCCN3)cc2C(C)(C)C)c1` [Compound 55, 2-[(2-tert-butyl-4-{[(2E)-imidazolidin-2-ylidene]carbamoyl}phenyl)amino]-N-(3-methylbutyl)pyridine-4-carboxamide], for which the EC50 was 168 nM.
For the compound `CC(C)CNC(=O)c1ccccc1Nc1ccc(C(=O)N=C2NCCN2)cc1C(C)(C)C` [Compound 56, 3-tert-butyl-N-[(2E)-imidazolidin-2-ylidene]-4-({2-[(2-methylpropyl)carbamoyl]phenyl}amino)benzamide], the concentration for a half-maximal effect (EC50) turned out to be 174 nM.
Consider `Cc1c(Nc2ccc(C(=O)N=C3NCCN3)cc2C2CC2)cccc1-c1ncc(Cl)[nH]1` [Compound 57, 4-{[3-(5-chloro-1H-imidazol-2-yl)-2-methylphenyl]amino}-3-cyclopropyl-N-[(2Z)-imidazolidin-2-ylidene]benzamide], for which the EC50 worked out at 200 nM.
Then `O=C(N=C1NCCN1)c1ccc(Nc2cccc(C(=O)NCCC3CCOCC3)c2)c(C2CC2)c1` [Compound 58, 3-cyclopropyl-N-[(2E)-imidazolidin-2-ylidene]-4-[(3-{[2-(oxan-4-yl)ethyl]carbamoyl}phenyl)amino]benzamide], with 207 nM; and `CC(C)NC(=O)c1cccc(Nc2ccc(C(=O)N=C3NCCN3)cc2C2CCOC2)c1` (stereo not shown) [Compound 59, N-[(2E)-imidazolidin-2-ylidene]-3-(oxolan-3-yl)-4-({3-[(propan-2-yl)carbamoyl]phenyl}amino)benzamide], with 237 nM; and `CC(C)=CCn1nnnc1-c1cccc(Nc2ccc(C(=O)N=C3NCCN3)cc2C2CC2)c1` [Compound 60, 3-cyclopropyl-N-[(2Z)-imidazolidin-2-ylidene]-4-({3-[1-(3-methylbut-2-en-1-yl)-1H-1,2,3,4-tetrazol-5-yl]phenyl}amino)benzamide], with 241 nM.
Under `CC(C)NC(=O)c1cccc(Nc2ccc(C(=O)/N=C3\NCC(=O)N3C)cc2C2CC2)c1` [Compound 61, 3-cyclopropyl-N-[(2E)-1-methyl-5-oxoimidazolidin-2-ylidene]-4-({3-[(propan-2-yl)carbamoyl]phenyl}amino)benzamide] stands 516 nM.
For the compound `CC(C)CCNC(=O)c1ccccc1Nc1ccc(C(=O)N=C2NCCN2)cc1C1CC1` [Compound 62, 3-cyclopropyl-N-[(2E)-imidazolidin-2-ylidene]-4-({2-[(3-methylbutyl)carbamoyl]phenyl}amino)benzamide], the EC50 was 641 nM.
Then `CC(C)C(=O)Nc1cccc(Nc2ccc(C(=O)N=C3NCCN3)cc2C2CCOC2)c1` (stereo not shown) [Compound 63, N-[(2E)-imidazolidin-2-ylidene]-4-{[3-(2-methylpropanamido)phenyl]amino}-3-(oxolan-3-yl)benzamide], with 727 nM; and `Cc1c(Nc2ccc(C(=O)N=C3NCCN3)cc2C2CC2)cccc1C(=O)NC1(C#N)CC1` [Compound 64, 4-({3-[(1-cyanocyclopropyl)carbamoyl]-2-methylphenyl}amino)-3-cyclopropyl-N-[(2Z)-imidazolidin-2-ylidene]benzamide], with 950 nM.
